“Also recorded” adds a separate entry of the source.
How the values were obtained:
WT zebrafish larvae = test: Toxicity evaluation: maximum tolerated concentration (MTC); format: in vivo, Danio rerio; details: WT larvae 6 dpf, 22 h incubation
Method: To evaluate the maximum tolerated concentration (MTC) of the individual compounds, a dozen of WT zebrafish larvae (6 dpf) were individually incubated in single wells of a 96-well plate, and treated with two-fold serial dilutions of the compounds. After 22 h incubation under standard conditions (28 °C, 14/10 light/dark cycle), larvae were individually examined for their touch response, posture, edema, signs of necrosis, morphology, heartbeat rate, and swim bladder condition under the microscope.

[1] = test system: zebrafish scn1Lab−/− mutant larvae; test: Noninvasive local field potential (LFP) recordings from the optic tectum; format: in vivo, Danio rerio; details: 22 h; for effect on cumulative duration of epileptiform events: Fig. 2B; for effect on frequency of epileptiform events: Fig. 2C
Method: (§1) WT and homozygous zebrafish larvae (scn1Lab^−/− mutants) (6 dpf) were treated as described above. After incubation, larvae were immobilized in 2% low-melting-point agarose (Invitrogen) at room temperature (RT) and the epileptiform activities were measured by noninvasive local field potential (LFP) recording from the skin above the optic tectum (midbrain). The single glass electrode filled with artificial cerebrospinal fluid (ACSF) (124 mM NaCl, 2 mM KCl, 2 mM MgSO4, 2 mM CaCl2, 1.25 mM KH2PO4, 26 mM NaHCO3, and 10 mM glucose) was positioned on the skin above the optic tectum. Each recording lasted for 10 min. Epileptiform activity was quantified by using Clampfit 10.2 software (Molecular Devices Corporation, USA60), as reported previously by our group.

[2] = test system: zebrafish scn1Lab−/− mutant larvae; test: Locomotor activity measurement (behavioral assay) in the zebrafish DS model; format: in vivo, Danio rerio; details: 22 h; for effect on epileptiform (hyper-)locomotor activity: single treatment at MTC, Fig. 2A
Method: (§2) WT and homozygous zebrafish larvae (scn1Lab^−/− mutants) (6 dpf) were individually positioned in single wells of a 96-well plate, and incubated in 100 μL VHC or VHC supplemented with compound or combined compounds for 22 h at 28 °C on a 14/10 h light/dark cycle. Then, the plates were placed immediately in an enclosed tracking device (ZebraBox Viewpoint, France), followed by a 30 min chamber habituation and 10 min recording. Locomotor activity over the total tracking period of 10 min was quantified by ZebraLab software (Software Viewpoint, France) using the lardist parameter (total distance in large movements) and 150 bkg (background) as a threshold, as reported previously by our group. For “small/large movement” and “inact/small movement”, a threshold was used of 6.4 and 3.3, respectively. Data were pooled from three or four independent experiments, with at least five larvae for each treatment and 20–30 larvae for each experimental condition, and expressed as “cm” per 100 s.

[3] = Compound concentration (uptake) in larval zebrafish heads by LC-MS; format: in vivo, Danio rerio; details: immersion at MTC for 30 min, 4 h and 22 h, Fig. 4
Method: WT and homozygous zebrafish larvae (scn1Lab^−/− mutants) (6 dpf) were treated as described above. After incubation with compounds, larvae were washed and euthanized by exposure to cold Milli-Q water. Then, the heads of larvae were carefully separated under the microscope, and five heads were transferred collectively into one 1.5 mL Eppendorf tube with acid-washed glass beads (diameter: […], Sigma Aldrich) and 275 µL extraction medium (HPLC grade methanol, Sigma Aldrich). Next, the samples were homogenized by 10 min of ultrasonication (Diagenode Bioruptor Plus, Belgium) at 4 °C. The overall ultrasonication process encompassed 10 cycles of 30 s with pauses of 30 s in-between with high energy input. […]
Quantification was performed through the use of a calibration curve created for each compound separately in blank matrix, which was derived from a pooled set of blank fish heads (n = 40). […] Ranges consisted of at least 5 concentrations, each of which was analyzed in replicate (n = 5). […]
The mean head weight (± S.D.) of a 6 dpf and 7 dpf zebrafish larva was 192 ± 10 µg and 196 ± 13 µg, respectively, as measured by weighing three batches of 50 fresh heads after removing excess water with filter paper. The final uptake was calculated according to the method reported by Copmans et al., and expressed as amount/head weight (µg/g).

dopamine (DA) release = test system: dopamine (DA) release; set-up: method as in earlier work; details: 34 (Rothman et al.); cited from earlier work
[4] = test system: zebrafish scn1Lab−/− mutant model of DS; test: Overall antiepileptic activity in the zebrafish scn1Lab−/− mutant model (locomotor and LFP read-outs together); format: in vivo, Danio rerio; details: 22 h incubation
Method: as §2, §1

5-HT2A = test system: 5-HT2A; set-up: method as in earlier work; details: 34 (Rothman et al.); cited from earlier work
5-HT2C = test system: 5-HT2C; set-up: method as in earlier work; details: 34 (Rothman et al.); cited from earlier work
serotonin uptake = target: serotonin uptake; set-up: method as in earlier work; details: 34 (Rothman et al.); read-out: Ki values for uptake inhibition, 5-HT; cited from earlier work
dopamine (DA) uptake = target: dopamine (DA) uptake; set-up: method as in earlier work; details: 34 (Rothman et al.); read-out: Ki values for uptake inhibition, DA; cited from earlier work
[5] = target: norepinephrine (NE) uptake; set-up: method as in earlier work; details: 34 (Rothman et al.); read-out: Ki values for uptake inhibition, NE; cited from earlier work
5-HT2B = test system: 5-HT2B; set-up: method as in earlier work; details: 34 (Rothman et al.); cited from earlier work
[6] = test system: norepinephrine (NE) release; set-up: method as in earlier work; details: 34 (Rothman et al.); cited from earlier work
[7] = test system: 5-HT transporter proteins; set-up: method as in earlier work; details: 34 (Rothman et al.); read-out: EC50 values for release, 5-HT; cited from earlier work
[8] = test system: DS zebrafish mutant model; set-up: method as in PMID 29335539; details: cited from earlier work
[9] = VPA single treatment at 250 µM, Fig. 3

CC(C)(C)C(O)/C=C/c1ccc2c(c1)OCO2 (centres unmarked) [STP, stiripentol]
maximum tolerated concentration (MTC) (WT zebrafish larvae): 50 µM | effect on epileptiform brain discharges ([1]; single treatment at MTC): failed to rescue; also recorded: not active | effect on epileptiform (hyper-)locomotor activity [2]: failed to rescue; also recorded: not active

C[C@H](N)Cc1cccc(C(F)(F)F)c1 [(+)-norFFA]
total uptake in larval heads (amount of compound/head weight) [3]: somewhat similar uptake; also recorded: taken up less than the parent compound | EC50 (dopamine (DA) release): 0.924 ± 0.112 µM | antiepileptic activity in the model (overall) [4]: more consistent and concentration-dependent; also recorded: significant antiepileptic effects | Kact values for 5-HT2 receptor subtypes, 5-HT2A (5-HT2A): 630 ± 141 nM | Kact values for 5-HT2 receptor subtypes, 5-HT2C (5-HT2C): 13 ± 2.4 nM | Ki (serotonin uptake): 0.214 ± 0.009 µM | Ki (dopamine (DA) uptake): 2.31 ± 0.087 µM | Ki [5]: 0.205 ± 0.019 µM | Kact values for 5-HT2 receptor subtypes, 5-HT2B (5-HT2B): 18.4 ± 5.3 nM | EC50 [6]: 0.0727 ± 0.0054 µM | EC50 [7]: 0.0593 ± 0.0024 µM

CCNC(C)Cc1cccc(C(F)(F)F)c1 (racemic) [(±)-FFA, (±)-Fenfluramine]
maximum tolerated concentration (MTC) (WT zebrafish larvae): 50 µM | effect on epileptiform brain discharges ([1]; (±)-FFA single treatment at 3.13 µM, Fig. 3E, F): not on the epileptiform brain discharges | effect on cumulative duration of epileptiform events ([1]; single treatment at MTC): decrease | effect on frequency of epileptiform events ([1]; single treatment at MTC): dramatically attenuated | effect on locomotor activity ([2]; (±)-FFA single treatment at 3.13 µM, Fig. 3D): significant effect | effect on epileptiform (hyper-)locomotor activity [2]: significantly counteracted

O=C1NC(=O)C(c2ccccc2)(c2ccccc2)N1 [PHT, Phenytoin]
maximum tolerated concentration (MTC) (WT zebrafish larvae): 100 µM | effect on epileptiform brain discharges ([1]; single treatment at MTC): no inhibitory effects | effect on epileptiform (hyper-)locomotor activity [2]: no inhibitory effects

C[C@@H](N)Cc1cccc(C(F)(F)F)c1 [(−)-norFFA]
total uptake in larval heads (amount of compound/head weight) [3]: somewhat similar uptake | EC50 (dopamine (DA) release): > 10 µM | antiepileptic activity in the model (overall) [4]: less conclusive | Kact values for 5-HT2 receptor subtypes, 5-HT2A (5-HT2A): 1565 ± 190 nM | Kact values for 5-HT2 receptor subtypes, 5-HT2C (5-HT2C): 18 ± 3.5 nM | Ki (serotonin uptake): 1.18 ± 0.089 µM | Ki (dopamine (DA) uptake): 19.2 µM | effect on frequency and cumulative duration of the epileptiform events ([1]; at least at MTC, Fig. 7): all compounds except for (−)-norFFA significantly reduced | Ki [5]: 2.05 ± 0.297 µM | Kact values for 5-HT2 receptor subtypes, 5-HT2B (5-HT2B): 357 ± 105 nM | EC50 [6]: 0.474 ± 0.04 µM | EC50 [7]: 0.287 ± 0.014 µM

NC(=O)N1c2ccccc2C=Cc2ccccc21 [CBZ, carbamazepine]
maximum tolerated concentration (MTC) (WT zebrafish larvae): 50 µM | effect on epileptiform brain discharges ([1]; single treatment at MTC): no inhibitory effects | effect on epileptiform (hyper-)locomotor activity [2]: no inhibitory effects

CC1(C)O[C@@H]2[C@@H](CO[C@@]3(COS(N)(=O)=O)OC(C)(C)O[C@@H]23)O1 [TPM, topiramate]
maximum tolerated concentration (MTC) (WT zebrafish larvae): 200 µM | antiepileptic activity in the model (overall) [4]: pronounced therapeutic activity | effect on cumulative duration of epileptiform events ([1]; single treatment at MTC): decrease | effect on frequency of epileptiform events ([1]; single treatment at MTC): dramatically attenuated | effect on epileptiform (hyper-)locomotor activity [2]: significantly counteracted

CN1C(=O)CC(=O)N(c2ccccc2)c2cc(Cl)ccc21 [CLB, clobazam]
efficacy in the DS zebrafish mutant model [8]: ineffective | maximum tolerated concentration (MTC) (WT zebrafish larvae): 100 µM | effect on epileptiform brain discharges ([1]; single treatment at MTC): failed to rescue | effect on epileptiform (hyper-)locomotor activity [2]: failed to rescue

CCN[C@@H](C)Cc1cccc(C(F)(F)F)c1 [(+)-FFA]
EC50 (dopamine (DA) release): > 10 µM | antiepileptic activity in the model (overall) [4]: more consistent and concentration-dependent; also recorded: significant antiepileptic effects | Kact values for 5-HT2 receptor subtypes, 5-HT2C (5-HT2C): 362 ± 64 nM | Ki (dopamine (DA) uptake): > 20 µM | Ki [5]: 1.29 ± 0.052 µM | Kact values for 5-HT2 receptor subtypes, 5-HT2B (5-HT2B): 379 ± 70 nM | EC50 [6]: 0.302 ± 0.02 µM

C=C(C)[C@@H]1CCC(C)=C[C@H]1c1c(O)cc(CCCCC)cc1O [CBD, cannabidiol]
maximum tolerated concentration (MTC) (WT zebrafish larvae): 6.25 µM | effect on epileptiform brain discharges ([1]; single treatment at MTC): failed to rescue; also recorded: not active | effect on epileptiform (hyper-)locomotor activity [2]: failed to rescue; also recorded: not active

CCN[C@H](C)Cc1cccc(C(F)(F)F)c1 [(−)-FFA]
EC50 (dopamine (DA) release): > 10 µM | antiepileptic activity in the model (overall) [4]: significant antiepileptic effects | Kact values for 5-HT2 receptor subtypes, 5-HT2C (5-HT2C): 360 ± 91 nM | Ki (dopamine (DA) uptake): > 20 µM | Ki [5]: 7.19 ± 0.559 µM | Kact values for 5-HT2 receptor subtypes, 5-HT2B (5-HT2B): 1248 ± 252 nM | EC50 [6]: > 10 µM

Nc1nnc(-c2cccc(Cl)c2Cl)c(N)n1 [LTG, lamotrigine]
maximum tolerated concentration (MTC) (WT zebrafish larvae): 100 µM | effect on epileptiform brain discharges ([1]; single treatment at MTC): no inhibitory effects | effect on epileptiform (hyper-)locomotor activity [2]: no inhibitory effects

CC[C@@H](C(N)=O)N1CCCC1=O [LEV, levetiracetam]
maximum tolerated concentration (MTC) (WT zebrafish larvae): 10000 µM | antiepileptic activity in the model (overall) [4]: failed to suppress | effect on epileptiform brain discharges ([1]; single treatment at MTC): failed to rescue | effect on epileptiform (hyper-)locomotor activity [2]: failed to rescue

CCCC(CCC)C(=O)O [VPA, Valproate]
maximum tolerated concentration (MTC) (WT zebrafish larvae): 1000 µM | effect on epileptiform brain discharges [1, 9]: limited and statistically non-significant effect; also recorded: not active | effect on cumulative duration of epileptiform events ([1]; single treatment at MTC): complete rescue | effect on frequency of epileptiform events ([1]; single treatment at MTC): complete rescue | effect on locomotor activity [2, 9]: limited and statistically non-significant effect; also recorded: not active | effect on epileptiform (hyper-)locomotor activity [2]: complete rescue

Reference: publication PMC8302504, “Efficacy of Fenfluramine and Norfenfluramine Enantiomers and Various Antiepileptic Drugs in a Zebrafish Model of Dravet Syndrome” (Neurochemical Research, 2021)
